Experimental data: PubChem BioAssay AID248 (DTP/NCI, 2004)
“And” between values parts separate entries of the source, which are not always exact repeats. Equal entries are not always repeated. Toxic doses and inconclusive results are not listed.

Tested on: L1210 leukemia ip in BDF1 mice, survival T/C
Assay: NCI In Vivo Anticancer Drug Screen. Data for tumor model L1210 Leukemia (intraperitoneal) in B6D2F1 (BDF1) mice
Details: endpoint: mean survival time, higher = longer survival
Method in brief: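 In this screen, tumor-bearing mice given compound are compared to those given vehicle, and their survival values are reported as a treated-to-control quotient.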

[1] = dose: 100.0 mg/kg/injection, schedule: Q01DX009 (ip), vehicle: water
[2] = dose: 200.0 mg/kg/injection, schedule: Q01DX009 (ip), vehicle: water
[3] = dose: 400.0 mg/kg/injection, schedule: Q01DX009 (ip), vehicle: water
[4] = dose: 100.0 mg/kg/injection, schedule: Q04DX003 (ip), vehicle: saline with Tween-80
[5] = dose: 200.0 mg/kg/injection, schedule: Q01DX009 (ip), vehicle: saline with Tween-80
[6] = dose: 200.0 mg/kg/injection, schedule: Q04DX003 (ip), vehicle: saline with Tween-80
[7] = dose: 100.0 mg/kg/injection, schedule: Q01DX001 (ip), vehicle: saline
[8] = dose: 200.0 mg/kg/injection, schedule: Q01DX001 (ip), vehicle: saline
[9] = dose: 100.0 mg/kg/injection, schedule: Q01DX009 (ip), vehicle: saline
[10] = dose: 100.0 mg/kg/injection, schedule: Q04DX003 (ip), vehicle: saline
[11] = dose: 200.0 mg/kg/injection, schedule: Q04DX003 (ip), vehicle: saline

`NC(CCC(=O)NC(CSCCC(=O)c1ccccc1)C(=O)NCC(=O)O)C(=O)O` (stereo not drawn) was tested, and the T/C (dose: 25.0 mg/kg/injection, schedule: Q01DX009 (ip), vehicle: water) was 96 % of control, the T/C (dose: 50.0 mg/kg/injection, schedule: Q01DX009 (ip), vehicle: water) was 91 % of control and the T/C [1] was 94 % of control. The T/C [2] was 92 % of control and the T/C [3] was 97 % of control.
In the case of `CN(C)C1CCC(N=Nc2cc([N+](=O)[O-])ccc2C(=O)O)CC1` (stereo not drawn), the T/C (dose: 75.0 mg/kg/injection, schedule: Q01DX001 (ip), vehicle: acetone) is reported as 105 % of control, the T/C (dose: 150.0 mg/kg/injection, schedule: Q01DX001 (ip), vehicle: acetone) is reported as 97 % of control and the T/C (dose: 300.0 mg/kg/injection, schedule: Q01DX001 (ip), vehicle: acetone) is reported as 90 % of control.
`CNC(COC(=O)c1ccc(N)cc1)C1CCCCC1` (stereo not drawn) was tested, and the T/C (dose: 75.0 mg/kg/injection, schedule: Q01DX001 (ip), vehicle: saline) was 97 % of control.
In the case of `Cc1cc(OC(=O)Nc2cccc(Cl)c2C)ccc1[N+](=O)[O-]`, the T/C (dose: 25.0 mg/kg/injection, schedule: Q01DX009 (ip), vehicle: saline with Tween-80) is reported as 104 % of control and 111 % of control, the T/C (dose: 50.0 mg/kg/injection, schedule: Q01DX009 (ip), vehicle: saline with Tween-80) is reported as 97 % of control and 103 % of control and the T/C (dose: 100.0 mg/kg/injection, schedule: Q04DX002 (ip), vehicle: saline with Tween-80) is reported as 100 % of control and 107 % of control. For the same compound, the T/C [4] was 105 % of control, the T/C [5] was 89 % of control and the T/C (dose: 200.0 mg/kg/injection, schedule: Q04DX002 (ip), vehicle: saline with Tween-80) was 101 % of control and 104 % of control. The T/C [6] was 100 % of control and the T/C (dose: 400.0 mg/kg/injection, schedule: Q04DX002 (ip), vehicle: saline with Tween-80) was 93 % of control.
With `CCOC(C)c1ccccc1` (stereo not drawn) the T/C (dose: 200.0 mg/kg/injection, schedule: Q01DX001 (ip), vehicle: carboxymethylcellulose (CMC)) was 95 % of control.
In the case of `NC(=O)c1cc([N+](=O)[O-])c(N)c([N+](=O)[O-])c1`, the T/C (dose: 100.0 mg/kg/injection, schedule: Q01DX001 (ip), vehicle: saline with Tween-80) is reported as 100 % of control, the T/C (dose: 200.0 mg/kg/injection, schedule: Q01DX001 (ip), vehicle: saline with Tween-80) is reported as 95 % of control and the T/C (dose: 400.0 mg/kg/injection, schedule: Q01DX001 (ip), vehicle: saline with Tween-80) is reported as 100 % of control.
In the case of `O=C(CCCC(=O)N/N=C/c1cccc([N+](=O)[O-])c1)N/N=C\c1cccc([N+](=O)[O-])c1`, the T/C (dose: 50.0 mg/kg/injection, schedule: Q01DX001 (ip), vehicle: saline) is reported as 101 % of control, the T/C [7] is reported as 95 % of control and the T/C [8] is reported as 95 % of control. The T/C (dose: 400.0 mg/kg/injection, schedule: Q01DX001 (ip), vehicle: saline) was 91 % of control.
In the case of `OCCSc1ncc2cnccn12`, the T/C [1] is reported as 98 % of control, the T/C (dose: 100.0 mg/kg/injection, schedule: Q04DX003 (ip), vehicle: water) is reported as 101 % of control and the T/C [2] is reported as 96 % of control. The T/C (dose: 200.0 mg/kg/injection, schedule: Q04DX003 (ip), vehicle: water) was 93 % of control, the T/C [3] was 102 % of control and the T/C (dose: 400.0 mg/kg/injection, schedule: Q04DX003 (ip), vehicle: water) was 95 % of control.
In the case of `O=C1CCCc2cc(Cl)c(Cl)cc21`, the T/C (dose: 100.0 mg/kg/injection, schedule: Q01DX009 (ip), vehicle: Klucel (hydroxypropylcellulose) (HPC)) is reported as 108 % of control, the T/C (dose: 200.0 mg/kg/injection, schedule: Q01DX009 (ip), vehicle: Klucel (hydroxypropylcellulose) (HPC)) is reported as 96 % of control and the T/C (dose: 400.0 mg/kg/injection, schedule: Q01DX009 (ip), vehicle: Klucel (hydroxypropylcellulose) (HPC)) is reported as 101 % of control.
With `CC(C)N=C(N)c1ccc(NC(=O)c2ccc(C(=O)Nc3ccc(C(N)=NC(C)C)cc3)cc2)cc1` the T/C (dose: 0.12 mg/kg/injection, schedule: Q01DX Z (ip), vehicle: water) was 101 % of control, the T/C (dose: 0.25 mg/kg/injection, schedule: Q01DX Z (ip), vehicle: water) was 108 % of control and the T/C (dose: 0.5 mg/kg/injection, schedule: Q01DX Z (ip), vehicle: water) was 113 % of control. The T/C (dose: 1.0 mg/kg/injection, schedule: Q01DX Z (ip), vehicle: water) was 162 % of control, the T/C (dose: 1.25 mg/kg/injection, schedule: Q01DX Z (ip), vehicle: other) was 237 % of control and the T/C (dose: 2.5 mg/kg/injection, schedule: Q01DX Z (ip), vehicle: other) was 172 % of control. The T/C (dose: 5.0 mg/kg/injection, schedule: Q01DX Z (ip), vehicle: other) was 118 % of control, the T/C (dose: 62.0 mg/kg/injection, schedule: Q01DX Z (oral), vehicle: alkali diluted with CMC) was 104 % of control and the T/C (dose: 125.0 mg/kg/injection, schedule: Q01DX Z (oral), vehicle: alkali diluted with CMC) was 93 % of control. For the same compound, the T/C (dose: 250.0 mg/kg/injection, schedule: Q01DX Z (oral), vehicle: alkali diluted with CMC) was 96 % of control and the T/C (dose: 500.0 mg/kg/injection, schedule: Q01DX Z (oral), vehicle: alkali diluted with CMC) was 90 % of control.
For `CCNC(C)(C)C(=O)c1ccc(Cl)s1`, the T/C (dose: 100.0 mg/kg/injection, schedule: Q01DX009 (ip), vehicle: saline with Tween-80) was 96 % of control, the T/C [4] was 100 % of control and the T/C [5] was 96 % of control. The T/C [6] was 100 % of control and the T/C (dose: 400.0 mg/kg/injection, schedule: Q04DX003 (ip), vehicle: saline with Tween-80) was 98 % of control.
`Nc1nc(N)c2nc(CN(CCO)c3ccc(C(=O)NC(CCC(=O)O)C(=O)O)cc3)cnc2n1` (stereo not drawn) was tested, and the T/C (dose: 1.0 mg/kg/injection, schedule: Q01DX009 (ip), vehicle: sodium bicarbonate) was 151 % of control, the T/C (dose: 2.0 mg/kg/injection, schedule: Q01DX009 (ip), vehicle: Klucel (hydroxypropylcellulose) (HPC)) was 174 % of control and the T/C (dose: 2.0 mg/kg/injection, schedule: Q01DX009 (ip), vehicle: sodium bicarbonate) was 172 % of control. The T/C (dose: 4.0 mg/kg/injection, schedule: Q01DX009 (ip), vehicle: Klucel (hydroxypropylcellulose) (HPC)) was 160 % of control, the T/C (dose: 4.0 mg/kg/injection, schedule: Q01DX009 (ip), vehicle: sodium bicarbonate) was 178 % of control and the T/C (dose: 8.0 mg/kg/injection, schedule: Q01DX009 (ip), vehicle: Klucel (hydroxypropylcellulose) (HPC)) was 151 % of control. For the same compound, the T/C (dose: 8.0 mg/kg/injection, schedule: Q01DX009 (ip), vehicle: sodium bicarbonate) was 113 % of control, the T/C (dose: 16.0 mg/kg/injection, schedule: Q01DX009 (ip), vehicle: Klucel (hydroxypropylcellulose) (HPC)) was 108 % of control and the T/C (dose: 16.0 mg/kg/injection, schedule: Q01DX009 (ip), vehicle: sodium bicarbonate) was 89 % of control. The T/C (dose: 32.0 mg/kg/injection, schedule: Q01DX009 (ip), vehicle: Klucel (hydroxypropylcellulose) (HPC)) was 96 % of control.
In the case of `C=CCSCC(=O)Cl`, the T/C (dose: 25.0 mg/kg/injection, schedule: Q01DX009 (ip), vehicle: saline) is reported as 102 % of control, the T/C (dose: 50.0 mg/kg/injection, schedule: Q01DX009 (ip), vehicle: saline) is reported as 100 % of control and the T/C [9] is reported as 110 % of control. The T/C (dose: 100.0 mg/kg/injection, schedule: Q04DX002 (ip), vehicle: saline) was 95 % of control.
In the case of `CCCCSP(=O)(Cc1ccccc1)SCCCC`, the T/C (dose: 12.5 mg/kg/injection, schedule: Q04DX003 (ip), vehicle: Klucel (hydroxypropylcellulose) (HPC)) is reported as 102 % of control, the T/C (dose: 25.0 mg/kg/injection, schedule: Q04DX003 (ip), vehicle: Klucel (hydroxypropylcellulose) (HPC)) is reported as 95 % of control and the T/C (dose: 50.0 mg/kg/injection, schedule: Q04DX003 (ip), vehicle: Klucel (hydroxypropylcellulose) (HPC)) is reported as 97 % of control.
With `C/C(=C1/SC(=S)NC1=O)c1ccccc1O` the T/C [7] was 104 % of control and the T/C [8] was 104 % of control.
In the case of `c1ccc(C2CCN3c4ccc5ccccc5c4NCC23)cc1` (stereo not drawn), the T/C (dose: 100.0 mg/kg/injection, schedule: Q04DX002 (ip), vehicle: Klucel (hydroxypropylcellulose) (HPC)) is reported as 107 % of control, the T/C (dose: 200.0 mg/kg/injection, schedule: Q04DX002 (ip), vehicle: Klucel (hydroxypropylcellulose) (HPC)) is reported as 93 % of control and the T/C (dose: 400.0 mg/kg/injection, schedule: Q04DX002 (ip), vehicle: Klucel (hydroxypropylcellulose) (HPC)) is reported as 93 % of control.
`CCCCC(CCCC)c1ccccn1` was tested, and the T/C [10] was 97 % of control, the T/C [11] was 97 % of control and the T/C (dose: 400.0 mg/kg/injection, schedule: Q04DX003 (ip), vehicle: saline) was 93 % of control.
`CCCCCCOC(=O)/C=C(/C)OCCCCCC` was tested, and the T/C [9] was 97 % of control, the T/C [10] was 94 % of control and the T/C (dose: 200.0 mg/kg/injection, schedule: Q01DX009 (ip), vehicle: saline) was 95 % of control. For the same compound, the T/C [11] was 96 % of control and the T/C (dose: 400.0 mg/kg/injection, schedule: Q01DX009 (ip), vehicle: saline) was 92 % of control.
`COC1(c2ccccc2)C(c2ccccc2)=CC(c2ccccc2)=[N+]1[O-]` (stereo not drawn) was tested, and the T/C (dose: 75.0 mg/kg/injection, schedule: Q04DX003 (ip), vehicle: saline) was 92 % of control, the T/C (dose: 150.0 mg/kg/injection, schedule: Q04DX003 (ip), vehicle: saline) was 89 % of control and the T/C (dose: 300.0 mg/kg/injection, schedule: Q04DX003 (ip), vehicle: saline) was 91 % of control.
